What was measured:
[1] = test system: MEG-01S; assay: MEG-01S cell viability by MTT assay; type: cell-based, human; details: 24 h treatment, 0-100 µM (Figure 3B)
Procedure: (§1) All bone marrow-derived macrophages (BMM) were obtained by culturing bone marrow cells from the femurs of 6 to 8 week old C57BL/6 male mice in RPMI 1640 medium (Invitrogen Life Technologies, Carlsbad, CA, USA) supplemented with 10 % Fetal calf serum (Invitrogen) 20 U/ml penicillin and 20 µg/ml streptomycin (Invitrogen), 2 mM L-glutamine (Glutamax-1, Invitrogen) in the presence of 10^4 U/ml (100 ng/mL) recombinant human CSF-1 (a gift from Chiron, Emeryville, CA) on bacteriological plastic plates for 7 days. The human megakaryocytic cell line MEG-01S was obtained from the American Type Culture Collection. MEG-01S were maintained in the same media as for BMM, supplemented with 1 mM Sodium Pyruvate (Invitrogen).
Known inhibitors 1 and 2, along with compound 3, were used to treat BMM at three doses (10, 30, 100 µM) in the presence of LPS for 24 h and cell viability was measured by MTT assay. BMM were seeded at 1 x 10^5 cells/well in 96 well plates and treated for 24 h with LPS (10 ng/ml) and compounds at 10, 30 and 100 µM. […] Cell viability was measured by MTT (Sigma-Aldrich) assay as described previously (Irvine, FASEB J, 2006).
The effect of the compounds on MEG-01S cell viability was measured by MTT assay after 24 h treatment across the concentration range 0 - 100 µM of compounds (Figure 3B). […]

[2] = test system: MEG-01S human megakaryocytes; assay: A23187-inducible PGD2 production in PMA-differentiated MEG-01S (EIA); type: cell-based; details: at 100 µM (Figure 3A)
Procedure: as §1
BMM were seeded overnight at 2 x 10^5 cells/ml in 24 well plates before treatment with compound at either 10 µM or 0.1 - 100 µM for 24 h in the presence or absence of lipopolysaccharide (LPS) from Salmonella Minnesota (Sigma-Aldrich) at a final concentration of 10 ng/ml. […] Supernatants were collected and samples were analysed for PGD2 using Prostaglandin D2 Mox Express EIA kits, PGE2 using Prostaglandin E2 Express EIA kits, the prostacyclin derivative 6-keto PGF1α using the 6-keto Prostaglandin F1α EIA Kit and the Thromboxane A2 derivative TXB2 using the Thromboxane B2 Express EIA kit (Cayman Chemical) according to the manufacturer's instructions. […]

[3] = test system: mouse primary bone marrow-derived macrophages (BMM); assay: LPS-inducible PGE2, 6-keto PGF1α and TXB2 production from BMM (EIA), specificity; type: cell-based; details: 24 h, 0-100 µM
Procedure: The human megakaryocytic cell line MEG-01S was obtained from the American Type Culture Collection. MEG-01S were maintained in the same media as for BMM, supplemented with 1 mM Sodium Pyruvate (Invitrogen).
BMM were seeded overnight at 2 x 10^5 cells/ml in 24 well plates before treatment with compound at either 10 µM or 0.1 - 100 µM for 24 h in the presence or absence of lipopolysaccharide (LPS) from Salmonella Minnesota (Sigma-Aldrich) at a final concentration of 10 ng/ml. MEG-01S were seeded at 2 x 10^5 cells/ml and stimulated with PMA (Phorbol 12-myristate 13-acetate) (Sigma-Aldrich) at a final concentration of 0.1 µM for 16 h.

[4] = test system: BMM; assay: BMM cell viability by MTT assay; type: cell-based, mouse; details: 10, 30, 100 µM, LPS, 24 h (Figure 1B)
Procedure: as §1
Known inhibitors 1 and 2, along with compound 3, were used to treat BMM at three doses (10, 30, 100 µM) in the presence of LPS for 24 h and cell viability was measured by MTT assay. BMM were seeded at 1 x 10^5 cells/well in 96 well plates and treated for 24 h with LPS (10 ng/ml) and compounds at 10, 30 and 100 µM. MEG-01S were PMA differentiated overnight before compounds were added for a further 24 h at 10, 30 and 100 µM. Cell viability was measured by MTT (Sigma-Aldrich) assay as described previously (Irvine, FASEB J, 2006).

[5] = target: T1, H-PGDS (Homo sapiens, UniProt O60760); assay: H-PGDS catalyzed conjugation of GSH and CDNB, enzyme inhibition assay; type: biochemical; details: for inhibition at 50 µM / I[50]: percent inhibition at 50 µM, Mean ± Standard Error of triplicate experiments; for inhibition at 50 µM: read-out: I[50]; for IC50: IC50 ± Standard Error of the Mean, triplicate experiments
T1 construct: made in house; host or cells: Escherichia coli BL21 DE3
T1 sequence (O60760 whole entry): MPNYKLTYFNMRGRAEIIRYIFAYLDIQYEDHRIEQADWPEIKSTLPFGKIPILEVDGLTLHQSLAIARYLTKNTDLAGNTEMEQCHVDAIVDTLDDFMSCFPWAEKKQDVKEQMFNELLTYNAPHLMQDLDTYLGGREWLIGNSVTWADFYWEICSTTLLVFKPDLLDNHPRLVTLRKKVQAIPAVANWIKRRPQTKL
Procedure: H-PGDS was expressed and purified as described previously (Jowsey, 2001). Briefly, H-PGDS was expressed in Escherichia coli strain BL21 DE3 transformed with the pET17b HPGDS expression construct, grown overnight at 37 °C in 250 ml of Luria-Bertani medium supplemented with 100 µg/ml ampicillin. After 24 h, without induction, bacteria were harvested by centrifugation at 5000 g for 20 min at 4 °C; cell pellets were kept at -70 °C until required. Cells were resuspended in 25 ml of ice-cold phosphate buffered saline (PBS), pH 7.4, containing 1 mM DTT, 0.5 % Triton X-100 and EDTA-free protease inhibitor tablets (F.Hoffmann-La Roche, Dee Why, NSW, Australia), and incubated with rotation for 30 mins at 4 °C. Cells were then lysed by sonication at 90-100 W over 3 x 1 min intervals, while incubated on ice; the lysate clarified by centrifugation at 18000 g for 10 min at 4 °C.
The supernatant was then applied to a GSTPrep FF 16/10 column pre-equilibrated with PBS, pH 7.4, and 1 mM DTT, at 0.4 ml/minute using an AKTA explorer 100 (GE Healthcare, Rydalmere, NSW, Australia), then washed with 5 column volumes of the same buffer at 1 ml/min. Bound H-PGDS was eluted in 5 column volumes of 15 mM reduced glutathione in 50 mM Tris, pH 9.0, at 0.5 ml/min, and dialysed against 100 volumes of 5 mM TrisCl, pH 8.0. The protein was concentrated to 20 mg/ml, as determined by the method of Bradford (Bradford, 1976) using an Amicon Ultra-4 centrifugal filter device (Millipore, North Ryde, NSW, Australia) following manufacturers recommendations. Glycerol was added to a final concentration of 10 % (v/v) prior to storage at -20 °C.
The H-PGDS catalyzed conjugation of GSH and 1-chloro-2,4-dinitrobenzene (CDNB) was used as the biochemical assay for enzyme inhibition. Reactions were performed in 96 well plate format, and product formation was followed at A340 nm over a 10 min internal at 25 °C using a POWERWAVE XS microplate scanning spectrophotometer (Bio-Tek Instruments, Winooski, VT, USA). Reactions were performed in 0.1 M Tris HCl, pH 8.0 containing 2 mM MgCl2, 1 mM CDNB, 2 mM GSH, 2.5 ng/µl purified H-PGDS and 10 % (v/v) ethanol in a 200 µl reaction volume. IC50 values were calculated from rates of conjugation activity determined at eight concentration points bracketing the IC50, where compound solubility allowed, and were corrected for background activity at the same solvent concentrations. All compounds were made up in 100 % DMSO and diluted with 0.1 M Tris HCl, pH 8.0 with 2 mM MgCl2. I50 and IC50 values were determined at a final DMSO composition of no greater than 4 % v/v for all compounds. Non-linear regression analysis and IC50 calculations were performed using GraphPad Prism version 4.0c.
IC50 values were calculated from triplicate experiments, and are presented as IC50 ± Standard Error of the Mean.

Compound | inhibition at 50 µM [5] | IC50 [5] | other results
c1ccc(C(OC2CCN(CCCc3nn[nH]n3)CC2)c2ccccc2)cc1 [Compound 1, reference compound] | – | – | MEG-01S cell viability [1]: little effect; A23187-inducible PGD2 production [2]: very modest activity; differential effect in inhibition of PGD2 versus PGE2, 6-keto PGF1α or TXB2 (selectivity) [3]: no differential effect; BMM cell viability [4]: modest but significant effects
O=C(NC(c1ccccc1)c1ccccc1)c1ccc(-c2cccs2)nc1 [Compound 4, N-benzhydryl-6-(thiophen-2-yl)nicotinamide] | 28.5% | – | –
O=C(NCc1ccccc1)c1ccc(-c2cccs2)nc1 [Compound 5, N-benzyl-6-(thiophen-2-yl)nicotinamide] | 99.5 ± 0.8% | 597 ± 1200 nM | –
O=C(c1ccc(-c2cccs2)nc1)N1CCc2ccccc2C1 [Compound 6, (3,4-dihydroisoquinolin-2(1H)-yl)(6-(thiophen-2-yl)pyridin-3-yl)methanone] | 72.3 ± 1.5% | – | –
O=C(c1ccc(-c2cccs2)nc1)N1CCC2(CCc3ccccc32)CC1 [Compound 7, (2,3-dihydrospiro[indene-1,4'-piperidin]-1'-yl)(6-(thiophen-2-yl)pyridin-3-yl)methanone] | 91 ± 0.1% | 1970 ± 1200 nM | –
CC(=O)C1(c2ccccc2)CCN(C(=O)c2ccc(-c3cccs3)nc2)CC1 [Compound 8, 1-(4-phenyl-1-(6-(thiophen-2-yl)nicotinoyl)piperidin-4-yl)ethanone] | 58.7 ± 0.8% | – | –
O=C(O)c1ccc(CNC(=O)c2ccc(-c3cccs3)nc2)cc1 [Compound 9, 4-((6-(thiophen-2-yl)nicotinamido)methyl)benzoic acid] | 98.3 ± 1.1% | 660 ± 1100 nM | –
CS(=O)(=O)N1CC2(CCN(C(=O)c3ccc(-c4cccs4)nc3)CC2)c2ccccc21 [Compound 10, (1-(methylsulfonyl)spiro[indoline-3,4'-piperidin]-1'-yl)(6-(thiophen-2-yl)pyridin-3-yl)methanone] | 90.4 ± 0.5% | 1230 ± 1100 nM | –
O=C(c1ccc(-c2cccs2)nc1)N1CCC(n2c(=O)[nH]c3ccccc32)CC1 [Compound 11, 1-(1-(6-(thiophen-2-yl)nicotinoyl)piperidin-4-yl)-1H-benzo[d]imidazol-2(3H)-one] | 90.4 ± 0.7% | 1220 ± 1400 nM | –
C[C@H](NC(=O)c1ccc(-c2cccs2)nc1)c1ccc2ccccc2c1 [Compound 12, (S)-N-(1-(naphthalen-2-yl)ethyl)-6-(thiophen-2-yl)nicotinamide] | 99.8 ± 0.3% | 86 nM | –
O=C(c1ccc(-c2cccs2)nc1)N1CCC(N2C(=O)OCc3ccccc32)CC1 [Compound 13, 1-(1-(6-(thiophen-2-yl)nicotinoyl)piperidin-4-yl)-1H-benzo[d][1,3]oxazin-2(4H)-one] | – | 3400 ± 1400 nM | I[50] [5]: 87.9 ± 1.1%
NC(=O)[C@H](Cc1ccccc1)NC(=O)c1ccc(-c2ccc(C=O)s2)nc1 [Compound 14] | 83.4 ± 1.5% | 1700 ± 1800 nM | –
NC(=O)[C@H](Cc1ccccc1)NC(=O)c1ccc(-c2ccc(C(=O)O)s2)nc1 [Compound 15] | – | – | I[50] [5]: 19.4 ± 1.4%
NC(=O)[C@H](Cc1ccccc1)NC(=O)c1ccc(-c2ccc(Cl)s2)nc1 [Compound 16] | 89.4 ± 4.7% | 1400 ± 1300 nM | –
Cc1ccc(-c2ccc(C(=O)N[C@@H](Cc3ccccc3)C(N)=O)cn2)s1 [Compound 17] | 95 ± 1.1% | 2000 ± 1100 nM | –
CC(=O)c1ccc(-c2ccc(C(=O)N[C@@H](Cc3ccccc3)C(N)=O)cn2)s1 [Compound 18] | 65.5 ± 7.7% | 5100 ± 1100 nM | –
NC(=O)[C@H](Cc1ccccc1)NC(=O)c1ccc(-c2sccc2Cl)nc1 [Compound 19] | 94.8 ± 2.4% | 3200 ± 1600 nM | –
N#Cc1ccc(-c2ccc(C(=O)N[C@@H](Cc3ccccc3)C(N)=O)cn2)s1 [Compound 20] | – | – | I[50] [5]: 67.9 ± 1.6%
Cc1csc(-c2ccc(C(=O)N[C@@H](Cc3ccccc3)C(N)=O)cn2)c1 [Compound 21] | 97.4 ± 0.8% | 380 ± 1100 nM | –
Cc1cc(-c2ccc(C(=O)N[C@@H](Cc3ccccc3)C(N)=O)cn2)sc1C#N [Compound 22] | – | – | I[50] [5]: 34.6 ± 2.1%
Cc1ccsc1-c1ccc(C(=O)N[C@@H](Cc2ccccc2)C(N)=O)cn1 [Compound 23] | 91.6 ± 0.8% | 1870 ± 1100 nM | –
CC(NC(=O)C(Cc1ccccc1)NC(=O)c1ccc(-c2cccs2)nc1)C(N)=O (stereo not drawn) [Compound 24] | 94.6 ± 0.3% | 860 ± 1200 nM | –
Cc1csc(-c2ccc(C(=O)N[C@@H](C)c3ccc4ccccc4c3)cn2)c1 [Compound 25] | 96.9 ± 1% | 180 nM | –

Reference: patent EP2576536B1, “HAEMATOPOIETIC-PROSTAGLANDIN D2 SYNTHASE INHIBITORS” (priority 2010, dated 2011)
